Assay results published in ChEMBL document CHEMBL5357035, “Previously Uncharacterized Variants, OCF-E-OCF-J, of the Antifungal Occidiofungin Produced by Burkholderia contaminans MS14” (2024).
Converted amounts (≈) assume the structure as drawn.

Key:
Format in all cases: functional
[1] = tested on: Nakaseomyces glabratus; test: Antifungal activity against Candida glabrata ATCC2001 assessed as reduction in fungal growth measured after 24 hrs by CLSI protocol based method
[2] = tested on: Candida albicans; test: Antifungal activity against Candida albicans ATCC3147 assessed as reduction in fungal growth measured after 24 hrs by CLSI protocol based method
[3] = tested on: [Candida] auris; test: Antifungal activity against Candida auris MYA-500 assessed as reduction in fungal growth measured after 24 hrs by CLSI protocol based method; conditions: Candidozyma auris

Row | SMILES | MIC [1] [µg/mL] | MIC [2] [µg/mL] | MIC [3] [µg/mL]
1 | CCCCCCCCCCC[C@@H](O[C@H]1OC[C@@H](O)[C@H](O)[C@H]1O)[C@H](O)[C@H](O)C[C@@H]1CC(=O)N[C@@H](CO)C(=O)N[C@H]([C@H](O)c2ccc(O)cc2)C(=O)N[C@H](CCN)C(=O)NCC(=O)N[C@@H](CC(=O)N(C)C)C(=O)N[C@H](CO)C(=O)N[C@@H]([C@H](O)C(N)=O)C(=O)N1 | 0.5 (≈ 0.402 µM) | 1 (≈ 0.804 µM) | 0.5 (≈ 0.402 µM)
2 | CCCCCCCCCCC[C@@H](O[C@H]1OC[C@@H](O)[C@H](O)[C@H]1O)[C@H](O)[C@H](O)C[C@@H]1CC(=O)N[C@@H](CO)C(=O)N[C@H]([C@H](O)c2ccc(O)cc2)C(=O)N[C@H](CCN)C(=O)NCC(=O)N[C@@H](CC(=O)NCC)C(=O)N[C@H](CO)C(=O)N[C@@H](CC(N)=O)C(=O)N1 | 2 (≈ 1.63 µM) | 2 (≈ 1.63 µM) | 1 (≈ 0.814 µM)
3 | CCCCCCCCCCC[C@@H](O[C@H]1OC[C@@H](O)[C@H](O)[C@H]1O)[C@H](O)[C@H](O)C[C@@H]1CC(=O)N[C@@H](CO)C(=O)N[C@H]([C@H](O)c2ccc(O)cc2)C(=O)N[C@H](CCN)C(=O)NCC(=O)N[C@@H](CC(N)=O)C(=O)N[C@H](CO)C(=O)N[C@@H](CC(N)=O)C(=O)N1 | 0.25 (≈ 0.208 µM) | 0.125 (≈ 0.104 µM) | 0.25 (≈ 0.208 µM)
4 | C#CCCNC(=O)C[C@@H]1NC(=O)CNC(=O)[C@@H](CCN)NC(=O)[C@@H]([C@H](O)c2ccc(O)cc2)NC(=O)[C@H](CO)NC(=O)C[C@@H](C[C@@H](O)[C@@H](O)[C@@H](CCCCCCCCCCC)O[C@H]2OC[C@@H](O)[C@H](O)[C@H]2O)NC(=O)[C@H]([C@H](O)C(N)=O)NC(=O)[C@@H](CO)NC1=O | 0.5 (≈ 0.394 µM) | 0.5 (≈ 0.394 µM) | 
5 | CCCCCCCCCCC[C@@H](O[C@H]1OC[C@@H](O)[C@H](O)[C@H]1O)[C@H](O)[C@H](O)C[C@@H]1CC(=O)N[C@@H](CO)C(=O)N[C@H]([C@H](O)c2ccc(O)cc2)C(=O)N[C@H](CCN)C(=O)NCC(=O)N[C@@H](CC(=O)NCCC)C(=O)N[C@H](CO)C(=O)N[C@@H]([C@H](O)C(N)=O)C(=O)N1 | 0.5 (≈ 0.397 µM) | 0.5 (≈ 0.397 µM) | 1 (≈ 0.795 µM)
6 | CCCCCCCCCCC[C@@H](O[C@H]1OC[C@@H](O)[C@H](O)[C@H]1O)[C@H](O)[C@H](O)C[C@@H]1CC(=O)N[C@@H](CO)C(=O)N[C@H]([C@H](O)c2ccc(O)cc2)C(=O)N[C@H](CCN)C(=O)NCC(=O)N[C@@H](CC(N)=O)C(=O)N[C@H](CO)C(=O)N[C@@H]([C@H](O)C(N)=O)C(=O)N1 | 0.25 (≈ 0.206 µM) | 0.125 (≈ 0.103 µM) | 0.25 (≈ 0.206 µM)
7 | CCCCCCCCCCC[C@@H](O[C@H]1OC[C@@H](O)[C@H](O)[C@H]1O)[C@H](O)[C@H](O)C[C@@H]1CC(=O)N[C@@H](CO)C(=O)N[C@H]([C@H](O)c2ccc(O)cc2)C(=O)N[C@H](CCN)C(=O)NCC(=O)N[C@@H](CC(=O)NCC)C(=O)N[C@H](CO)C(=O)N[C@@H]([C@H](O)C(N)=O)C(=O)N1 | 2 (≈ 1.61 µM) | 2 (≈ 1.61 µM) | 1 (≈ 0.804 µM)
8 | CCCCCCCCCCC[C@@H](O[C@H]1OC[C@@H](O)[C@H](O)[C@H]1O)[C@H](O)[C@H](O)C[C@@H]1CC(=O)N[C@@H](CO)C(=O)N[C@H]([C@H](O)c2ccc(O)cc2)C(=O)N[C@H](CCN)C(=O)NCC(=O)N[C@@H](CC(=O)NC)C(=O)N[C@H](CO)C(=O)N[C@@H](CC(N)=O)C(=O)N1 | 0.5 (≈ 0.412 µM) | 0.5 (≈ 0.412 µM) | 0.5 (≈ 0.412 µM)

More lines, now with the values ahead:

Row | MIC [1] [µg/mL] | MIC [2] [µg/mL] | MIC [3] [µg/mL] | SMILES
9 | 8 (≈ 5.78 µM) | > 8 |  | CCCCCCCCCCCCNC(=O)C[C@@H]1NC(=O)CNC(=O)[C@@H](CCN)NC(=O)[C@@H]([C@H](O)c2ccc(O)cc2)NC(=O)[C@H](CO)NC(=O)C[C@@H](C[C@@H](O)[C@@H](O)[C@@H](CCCCCCCCCCC)O[C@H]2OC[C@@H](O)[C@H](O)[C@H]2O)NC(=O)[C@H]([C@H](O)C(N)=O)NC(=O)[C@@H](CO)NC1=O
10 | 0.5 (≈ 0.399 µM) | 0.5 (≈ 0.399 µM) |  | C#CCCNC(=O)C[C@@H]1NC(=O)CNC(=O)[C@@H](CCN)NC(=O)[C@@H]([C@H](O)c2ccc(O)cc2)NC(=O)[C@H](CO)NC(=O)C[C@@H](C[C@@H](O)[C@@H](O)[C@@H](CCCCCCCCCCC)O[C@H]2OC[C@@H](O)[C@H](O)[C@H]2O)NC(=O)[C@H](CC(N)=O)NC(=O)[C@@H](CO)NC1=O
11 | 2 (≈ 1.66 µM) | 2 (≈ 1.66 µM) | 1 (≈ 0.832 µM) | CCCCCCCCCCC[C@@H](O[C@H]1OC[C@@H](O)[C@H](O)[C@H]1O)[C@H](O)[C@H](O)C[C@@H]1CC(=O)N[C@@H](CO)C(=O)N[C@H]([C@H](O)c2ccc(O)cc2)C(=O)N[C@H](CCN)C(=O)NCC(=O)N[C@@H](CC(=O)O)C(=O)N[C@H](CO)C(=O)N[C@@H](CC(N)=O)C(=O)N1
12 | 0.5 (≈ 0.406 µM) | 0.5 (≈ 0.406 µM) | 0.5 (≈ 0.406 µM) | CCCCCCCCCCC[C@@H](O[C@H]1OC[C@@H](O)[C@H](O)[C@H]1O)[C@H](O)[C@H](O)C[C@@H]1CC(=O)N[C@@H](CO)C(=O)N[C@H]([C@H](O)c2ccc(O)cc2)C(=O)N[C@H](CCN)C(=O)NCC(=O)N[C@@H](CC(=O)NC)C(=O)N[C@H](CO)C(=O)N[C@@H]([C@H](O)C(N)=O)C(=O)N1
13 | 8 (≈ 5.85 µM) | > 8 |  | CCCCCCCCCCCCNC(=O)C[C@@H]1NC(=O)CNC(=O)[C@@H](CCN)NC(=O)[C@@H]([C@H](O)c2ccc(O)cc2)NC(=O)[C@H](CO)NC(=O)C[C@@H](C[C@@H](O)[C@@H](O)[C@@H](CCCCCCCCCCC)O[C@H]2OC[C@@H](O)[C@H](O)[C@H]2O)NC(=O)[C@H](CC(N)=O)NC(=O)[C@@H](CO)NC1=O
14 | 2 (≈ 1.64 µM) | 2 (≈ 1.64 µM) | 1 (≈ 0.821 µM) | CCCCCCCCCCC[C@@H](O[C@H]1OC[C@@H](O)[C@H](O)[C@H]1O)[C@H](O)[C@H](O)C[C@@H]1CC(=O)N[C@@H](CO)C(=O)N[C@H]([C@H](O)c2ccc(O)cc2)C(=O)N[C@H](CCN)C(=O)NCC(=O)N[C@@H](CC(=O)O)C(=O)N[C@H](CO)C(=O)N[C@@H]([C@H](O)C(N)=O)C(=O)N1
15 | 0.5 (≈ 0.407 µM) | 1 (≈ 0.814 µM) | 0.5 (≈ 0.407 µM) | CCCCCCCCCCC[C@@H](O[C@H]1OC[C@@H](O)[C@H](O)[C@H]1O)[C@H](O)[C@H](O)C[C@@H]1CC(=O)N[C@@H](CO)C(=O)N[C@H]([C@H](O)c2ccc(O)cc2)C(=O)N[C@H](CCN)C(=O)NCC(=O)N[C@@H](CC(=O)N(C)C)C(=O)N[C@H](CO)C(=O)N[C@@H](CC(N)=O)C(=O)N1
16 | 0.5 (≈ 0.402 µM) | 0.5 (≈ 0.402 µM) | 1 (≈ 0.805 µM) | CCCCCCCCCCC[C@@H](O[C@H]1OC[C@@H](O)[C@H](O)[C@H]1O)[C@H](O)[C@H](O)C[C@@H]1CC(=O)N[C@@H](CO)C(=O)N[C@H]([C@H](O)c2ccc(O)cc2)C(=O)N[C@H](CCN)C(=O)NCC(=O)N[C@@H](CC(=O)NCCC)C(=O)N[C@H](CO)C(=O)N[C@@H](CC(N)=O)C(=O)N1
